{"source": "patent US20100003217A1", "about": "“Compounds and Pharmaceutical Compositions for the Treatment of Viral Infections” (priority 2008, published 2010)", "assay": "Rat plasma pharmacokinetics of total radioactivity after [^14C]-Compound 1", "format": "in vivo, male Sprague-Dawley rats", "conditions": "for Plasma total radioactivity concentration, Mean: group mean; for Plasma total radioactivity concentration: individual rats; for AUC0-24 of plasma total radioactivity: from average concentrations", "experimental": "A preliminary rat metabolism study was conducted with radiolabeled Compound 1. The compound was labeled with [^14C] in the C-8 position of the guanine moiety. The objectives of the study were to determine, 1) the plasma pharmacokinetics of total radioactivity, 2) the time-course of total radioactivity and the amount of 2′-C-methyl guanosine-5′-TP in liver, 3) the major route of excretion, and 4) the metabolic profile in excreta, liver, and plasma.\nIsotopically diluted [^14C]-Compound 1 was administered intravenously to male Sprague-Dawley rats at 50 mg/kg or by oral gavage at 100 mg/kg.\nThe plasma concentration-time data for total radioactivity was analyzed using Microsoft® Office Excel 2003 to obtain the area under the concentration-time curve (AUC). AUC0-24 (area under the concentration-time curve from 0 to 24 h after dosing) was calculated using the linear trapezoidal rule and nominal sampling times. For the IV dose group, concentration at time zero was extrapolated from the concentration data for the first two time points. The maximum (peak) plasma concentrations (Cmax) and the time to peak concentrations (tmax) were the observed values. Descriptive statistics were prepared in Excel.\nRadioanalyses of plasma samples were conducted. The plasma concentration data for total radioactivity expressed as μg equivalents/mL are summarized below: […]", "note": "Several values for one entry are separate records, joined by “and”; a condition that tells them apart may be missing. Identical values can stand only once."}
{"smiles": "CC(C)(CO)C(=O)SCCOP(=O)(NCc1ccccc1)OC[C@H]1O[C@@H](n2cnc3c(=O)[nH]c(N)nc32)[C@](C)(O)[C@@H]1O", "note": "(stereo partly drawn) [[^14C] Compound 1]", "values": [{"measurement": "Plasma total radioactivity concentration, Mean", "setting": "IV 50 mg/kg, 0 h (pre-dose)", "result": 0.000, "unit": "μg Equivalents/mL"}, {"measurement": "Plasma total radioactivity concentration, Mean", "setting": "IV 50 mg/kg, 0.083 h", "result": 43.692, "unit": "μg Equivalents/mL"}, {"measurement": "Plasma total radioactivity concentration, Mean", "setting": "IV 50 mg/kg, 0.25 h", "result": 9.195, "unit": "μg Equivalents/mL"}, {"measurement": "Plasma total radioactivity concentration, Mean", "setting": "IV 50 mg/kg, 0.5 h", "result": 4.311, "unit": "μg Equivalents/mL"}, {"measurement": "Plasma total radioactivity concentration, Mean", "setting": "IV 50 mg/kg, 0.75 h", "result": 1.835, "unit": "μg Equivalents/mL"}, {"measurement": "Plasma total radioactivity concentration, Mean", "setting": "IV 50 mg/kg, 1 h", "result": 1.399, "unit": "μg Equivalents/mL"}, {"measurement": "Plasma total radioactivity concentration, Mean", "setting": "IV 50 mg/kg, 2 h", "result": 2.175, "unit": "μg Equivalents/mL"}, {"measurement": "Plasma total radioactivity concentration, Mean", "setting": "IV 50 mg/kg, 4 h", "result": 0.799, "unit": "μg Equivalents/mL"}, {"measurement": "Plasma total radioactivity concentration, Mean", "setting": "IV 50 mg/kg, 6 h", "result": 2.652, "unit": "μg Equivalents/mL"}, {"measurement": "Plasma total radioactivity concentration, Mean", "setting": "IV 50 mg/kg, 10 h", "result": 0.605, "unit": "μg Equivalents/mL"}, {"measurement": "Plasma total radioactivity concentration, Mean", "setting": "IV 50 mg/kg, 24 h", "result": 0.570, "unit": "μg Equivalents/mL"}, {"measurement": "Plasma total radioactivity concentration", "setting": "IV 50 mg/kg, Group 1A, 0.25 h, 50 mg/kg", "result": "10.883 μg Equivalents/mL and 9.006 μg Equivalents/mL and 7.913 μg Equivalents/mL and 8.978 μg Equivalents/mL"}, {"measurement": "Plasma total radioactivity concentration", "setting": "IV 50 mg/kg, Group 1A, 1 h, 50 mg/kg", "result": "1.371 μg Equivalents/mL and 1.358 μg Equivalents/mL and 1.600 μg Equivalents/mL and 1.267 μg Equivalents/mL"}, {"measurement": "Plasma total radioactivity concentration", "setting": "IV 50 mg/kg, Group 1A, 2 h, 50 mg/kg", "result": "2.202 μg Equivalents/mL and 1.861 μg Equivalents/mL and 2.545 μg Equivalents/mL and 2.092 μg Equivalents/mL"}, {"measurement": "Plasma total radioactivity concentration", "setting": "IV 50 mg/kg, Group 1B, 0 h (pre-dose)", "result": 0.000, "unit": "μg Equivalents/mL"}, {"measurement": "Plasma total radioactivity concentration", "setting": "IV 50 mg/kg, Group 1B, 0.75 h, 50 mg/kg", "result": "1.576 μg Equivalents/mL and 1.600 μg Equivalents/mL and 1.710 μg Equivalents/mL and 2.454 μg Equivalents/mL"}, {"measurement": "Plasma total radioactivity concentration", "setting": "IV 50 mg/kg, Group 1B, 4 h, 50 mg/kg", "result": "0.755 μg Equivalents/mL and 0.713 μg Equivalents/mL and 0.938 μg Equivalents/mL and 0.790 μg Equivalents/mL"}, {"measurement": "Plasma total radioactivity concentration", "setting": "IV 50 mg/kg, Group 1B, 6 h, 50 mg/kg", "result": "2.376 μg Equivalents/mL and 2.233 μg Equivalents/mL and 2.160 μg Equivalents/mL and 3.837 μg Equivalents/mL"}, {"measurement": "Plasma total radioactivity concentration", "setting": "IV 50 mg/kg, Group 1C, 0.083 h, 50 mg/kg", "result": "50.653 μg Equivalents/mL and 45.178 μg Equivalents/mL and 35.246 μg Equivalents/mL and 37.600 μg Equivalents/mL"}, {"measurement": "Plasma total radioactivity concentration", "setting": "IV 50 mg/kg, Group 1C, 0.5 h, 50 mg/kg", "result": "4.824 μg Equivalents/mL and 4.036 μg Equivalents/mL and 4.072 μg Equivalents/mL and 3.857 μg Equivalents/mL"}, {"measurement": "Plasma total radioactivity concentration", "setting": "IV 50 mg/kg, Group 1C, 10 h, 50 mg/kg", "result": "0.566 μg Equivalents/mL and 0.675 μg Equivalents/mL and 0.573 μg Equivalents/mL and 0.562 μg Equivalents/mL"}, {"measurement": "Plasma total radioactivity concentration", "setting": "IV 50 mg/kg, Group 1C, 24 h, 50 mg/kg", "result": "0.515 μg Equivalents/mL and 0.759 μg Equivalents/mL and 0.553 μg Equivalents/mL and 0.453 μg Equivalents/mL"}, {"measurement": "AUC0-24 of plasma total radioactivity", "setting": "IV 50 mg/kg", "result": 36.000, "unit": "μg equivalents · h/mL"}, {"measurement": "Plasma total radioactivity concentration, Mean", "setting": "PO 100 mg/kg, 0 h (pre-dose)", "result": 0.000, "unit": "μg Equivalents/mL"}, {"measurement": "Plasma total radioactivity concentration, Mean", "setting": "PO 100 mg/kg, 0.083 h", "result": 0.283, "unit": "μg Equivalents/mL"}, {"measurement": "Plasma total radioactivity concentration, Mean", "setting": "PO 100 mg/kg, 0.25 h", "result": 0.346, "unit": "μg Equivalents/mL"}, {"measurement": "Plasma total radioactivity concentration, Mean", "setting": "PO 100 mg/kg, 0.5 h", "result": 0.316, "unit": "μg Equivalents/mL"}, {"measurement": "Plasma total radioactivity concentration, Mean", "setting": "PO 100 mg/kg, 0.75 h", "result": 0.315, "unit": "μg Equivalents/mL"}, {"measurement": "Plasma total radioactivity concentration, Mean", "setting": "PO 100 mg/kg, 4 h", "result": 0.625, "unit": "μg Equivalents/mL"}, {"measurement": "Plasma total radioactivity concentration, Mean", "setting": "PO 100 mg/kg, 6 h", "result": 1.331, "unit": "μg Equivalents/mL"}, {"measurement": "Plasma total radioactivity concentration, Mean", "setting": "PO 100 mg/kg, 10 h", "result": 0.622, "unit": "μg Equivalents/mL"}, {"measurement": "Plasma total radioactivity concentration, Mean", "setting": "PO 100 mg/kg, 24 h", "result": 0.399, "unit": "μg Equivalents/mL"}, {"measurement": "Plasma total radioactivity concentration", "setting": "PO 100 mg/kg, Group 2A, 0.25 h, 100 mg/kg", "result": "0.216 μg Equivalents/mL and 0.433 μg Equivalents/mL and 0.474 μg Equivalents/mL and 0.260 μg Equivalents/mL"}, {"measurement": "Plasma total radioactivity concentration", "setting": "PO 100 mg/kg, Group 2B, 0 h (pre-dose)", "result": 0.000, "unit": "μg Equivalents/mL"}, {"measurement": "Plasma total radioactivity concentration", "setting": "PO 100 mg/kg, Group 2B, 0.75 h, 100 mg/kg", "result": "0.346 μg Equivalents/mL and 0.327 μg Equivalents/mL and 0.331 μg Equivalents/mL and 0.256 μg Equivalents/mL"}, {"measurement": "Plasma total radioactivity concentration", "setting": "PO 100 mg/kg, Group 2B, 4 h, 100 mg/kg", "result": "0.578 μg Equivalents/mL and 0.618 μg Equivalents/mL and 0.675 μg Equivalents/mL and 0.630 μg Equivalents/mL"}, {"measurement": "Plasma total radioactivity concentration", "setting": "PO 100 mg/kg, Group 2B, 6 h, 100 mg/kg", "result": "1.157 μg Equivalents/mL and 1.163 μg Equivalents/mL and 1.522 μg Equivalents/mL and 1.480 μg Equivalents/mL"}, {"measurement": "Plasma total radioactivity concentration", "setting": "PO 100 mg/kg, Group 2C, 0.083 h, 100 mg/kg", "result": "0.228 μg Equivalents/mL (2×) and 0.394 μg Equivalents/mL and 0.596 μg Equivalents/mL"}, {"measurement": "Plasma total radioactivity concentration", "setting": "PO 100 mg/kg, Group 2C, 0.5 h, 100 mg/kg", "result": "0.236 μg Equivalents/mL and 0.335 μg Equivalents/mL and 0.378 μg Equivalents/mL and 0.408 μg Equivalents/mL"}, {"measurement": "Plasma total radioactivity concentration", "setting": "PO 100 mg/kg, Group 2C, 10 h, 100 mg/kg", "result": "0.806 μg Equivalents/mL and 0.555 μg Equivalents/mL and 0.506 μg Equivalents/mL and 0.511 μg Equivalents/mL"}, {"measurement": "Plasma total radioactivity concentration", "setting": "PO 100 mg/kg, Group 2C, 24 h, 100 mg/kg", "result": "0.450 μg Equivalents/mL and 0.303 μg Equivalents/mL and 0.458 μg Equivalents/mL and 0.384 μg Equivalents/mL"}, {"measurement": "AUC0-24 of plasma total radioactivity", "setting": "PO 100 mg/kg", "result": 15.445, "unit": "μg equivalents · h/mL"}]}
